Assays:
[1] = tested on: enzyme associated with Bacillus stearothermophilus spores; assay: Rapid enzyme fluorescence readout of dual rapid readout indicators after prevacuum steam sterilization; format: biochemical; settings: 4-pulse prevacuum steam 121° C.; for FLUORESCENCE - PERCENT POSITIVE 1 HR / FLUORESCENCE - PERCENT POSITIVE 2 HR / FLUORESCENCE - PERCENT POSITIVE 3 HR / FLUORESCENCE - PERCENT POSITIVE 4 HR: Example 4, 7–18 min
Method in brief: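 This is a rapid enzyme test in which spore-associated enzyme activity is detected by fluorescence. Spores coated with chemicals were dried on 5×25 mm paper strips for 16 hours at 37° C. They were loaded into indicators that carried 4-methylumbelliferyl-alpha-D-glucoside substrate, with untreated spores serving as controls. After 4-pulse prevacuum steam exposure at 121° C, with vacuum at 0.075–0.085 bar, the substrate ampoules were crushed and the indicators were incubated at 60° C and read with an autoreader.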

[2] = tested on: enzyme associated with Bacillus stearothermophilus spores; assay: Rapid enzyme fluorescence readout of indicators after hydrogen peroxide plasma sterilization; format: biochemical; settings: for accuracy of sterilization indicators compared to indicators made with untreated spores: 1–3 hours after exposure; for FLUORESCENCE - PERCENT POSITIVE 1 HR / FLUORESCENCE - PERCENT POSITIVE 2 HR / FLUORESCENCE - PERCENT POSITIVE 3 HR / FLUORESCENCE - PERCENT POSITIVE 4 HR / FLUORESCENCE - PERCENT POSITIVE 5 HR: 1–22 min diffusion
Protocol: (§1) Sterilization indicators for Examples 6–9 were prepared as described above with the exception that closure member 22 of the sterilization indicator was constructed of TYVEK™ high-density polyethylene fiber material, commercially available from E.I. du Pont de Nemours and Co., Wilmington, Del.
(§2) Sterilization indicators were made as described above with spores that had been coated with each of the chemicals and concentrations listed in Table 6. The indicators were placed in instrument trays and exposed to a hydrogen peroxide plasma sterilization procedure at 45–55° C. in a STERRAD™ 100SI GMP Sterilizer, obtained from Advanced Sterilization Products Co., Irvine, Calif. During the sterilization procedure a vacuum was drawn in the sterilization chamber for 5–6 minutes until the pressure was reduced to 300 mTorr. A 1.8 ml aliquot of an aqueous solution of 58–60% hydrogen peroxide was then injected into the sterilization chamber over a period of about 6 minutes, yielding an empty chamber concentration of […] hydrogen peroxide, and hydrogen peroxide vapor was allowed to diffuse throughout the chamber for 1–22 minutes at 6–10 Torr. A vacuum was then drawn, reducing the pressure to 500 mTorr and removing all detectable hydrogen peroxide vapor from the chamber.
(§3) After exposure to the sterilization procedure, the indicators were removed from the sterilizer and the inner containers containing the enzyme substrate and nutrient medium were crushed. The indicators were then incubated at 60° C. and examined for fluorescence every hour for 5 hours using a 3M™ ATTEST™ Model 190 Rapid Autoreader, commercially available from 3M Company, St. Paul, Minn. Additionally, spore growth, as indicated by a color change from purple to yellow, was determined visually after 168 hours of incubation.
(§4) The number of growth positive indicators detected after 168 hours of incubation is recorded in Table 6.
as §2, with “7.” for “6.”
as §2, with “8.” for “6.”, “chamber. […]” for “chamber.”

[3] = tested on: Bacillus stearothermophilus spores; assay: Spore outgrowth (color change) of indicators after hydrogen peroxide plasma sterilization; format: cell-based; settings: 1–22 min diffusion
Protocol: as §1, §2, §3, §4
as §2, with “7.” for “6.”
as §2, with “8.” for “6.”, “chamber. […]” for “chamber.”

[4] = tested on: Bacillus stearothermophilus spores; assay: Spore outgrowth (color change) of indicators after prevacuum steam sterilization; format: cell-based; settings: Example 4, 4-pulse prevacuum steam 121° C., 7–18 min
Method in brief: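 Self-contained indicators held coated spore strips, a polypropylene microfiber barrier and a crushable inner container. That container held peptone, L-alanine, 4-methylumbelliferyl-alpha-D-glucoside and bromocresol purple at pH 7.6. Indicators sat in metal trays in a Getinge sterilizer running pulses of 0.075–0.085 bar vacuum and steam to 1.00 bar at 121° C. Incubation at 60° C followed, and yellow color at 168 hours scored spore outgrowth.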

Substance | FLUORESCENCE - PERCENT POSITIVE 1 HR ([1]; 50 mg/ml coating) [%] | FLUORESCENCE - PERCENT POSITIVE 2 HR ([1]; 50 mg/ml coating) [%] | FLUORESCENCE - PERCENT POSITIVE 3 HR ([1]; 50 mg/ml coating) [%] | FLUORESCENCE - PERCENT POSITIVE 4 HR ([1]; 50 mg/ml coating) [%] | FLUORESCENCE - PERCENT POSITIVE 1 HR ([1]; 100 mg/ml coating) [%] | FLUORESCENCE - PERCENT POSITIVE 2 HR ([1]; 100 mg/ml coating) [%] | FLUORESCENCE - PERCENT POSITIVE 3 HR ([1]; 100 mg/ml coating) [%] | FLUORESCENCE - PERCENT POSITIVE 4 HR ([1]; 100 mg/ml coating) [%] | accuracy of sterilization indicators compared to indicators made with untreated spores [2] | NO. GROWTH POSITIVE 168 HR ([4]; 50 mg/ml coating) | NO. GROWTH POSITIVE 168 HR ([4]; 100 mg/ml coating) | FLUORESCENCE - PERCENT POSITIVE 1 HR ([2]; Example 6, 50 mg/ml coating) [%] | FLUORESCENCE - PERCENT POSITIVE 2 HR ([2]; Example 6, 50 mg/ml coating) [%] | FLUORESCENCE - PERCENT POSITIVE 3 HR ([2]; Example 6, 50 mg/ml coating) [%] | FLUORESCENCE - PERCENT POSITIVE 4 HR ([2]; Example 6, 50 mg/ml coating) [%] | FLUORESCENCE - PERCENT POSITIVE 5 HR ([2]; Example 6, 50 mg/ml coating) [%] | NO. GROWTH POSITIVE 168 HR ([3]; Example 6, 50 mg/ml coating) | other results
Decaglyceral Hexaoleate | 0 | 0 | 22.2 | 55.6 | 5.6 | 16.7 | 27.8 | 33.3 | improved | 9 | 18 |  |  |  |  |  |  | FLUORESCENCE - PERCENT POSITIVE 1 HR ([2]; Example 6, 10 mg/ml coating): 100%; FLUORESCENCE - PERCENT POSITIVE 2 HR ([2]; Example 6, 10 mg/ml coating): 100%; FLUORESCENCE - PERCENT POSITIVE 3 HR ([2]; Example 6, 10 mg/ml coating): 100%; FLUORESCENCE - PERCENT POSITIVE 4 HR ([2]; Example 6, 10 mg/ml coating): 100%; FLUORESCENCE - PERCENT POSITIVE 5 HR ([2]; Example 6, 10 mg/ml coating): 100%; NO. GROWTH POSITIVE 168 HR ([3]; Example 6, 10 mg/ml coating): 12
Tetraglyceryl Monooleate | 0.0 | 52.9 | 52.9 | 58.8 | 57.1 | 100.0 | 100.0 | 100.0 | improved | 17 | 35 | 76.6 | 90.9 | 100 | 100 | 100 | 11 | accuracy of sterilization indicators compared to indicators made with untreated spores [1]: improved
Hexaglyceryl Dioleate | 0 | 0 | 0 | 0 | 0 | 0 | 0 | 0 |  | 7 | 23 | 66.7 | 100 | 100 | 100 | 100 | 6 | 

Reference: patent US7045343B2, “Sterilization indicator test packs” (3M Innovative Properties Company, priority 1998, dated 2006)
